Calls of active or inactive are those of the source. No rule for the calls is given here.
The compounds below were run against Dual specificity protein phosphatase 1 (Homo sapiens) (UniProt P28562) (assay: MKP-1 phosphatase inhibitors with catalase, dose response, biochemical, catalase added, active/probe assessment (AID 562)). Settings: recombinant MKP-1 phosphatase, fluorescence.
Chain of Dual specificity protein phosphatase 1 (Homo sapiens) (P28562 whole entry, looked up): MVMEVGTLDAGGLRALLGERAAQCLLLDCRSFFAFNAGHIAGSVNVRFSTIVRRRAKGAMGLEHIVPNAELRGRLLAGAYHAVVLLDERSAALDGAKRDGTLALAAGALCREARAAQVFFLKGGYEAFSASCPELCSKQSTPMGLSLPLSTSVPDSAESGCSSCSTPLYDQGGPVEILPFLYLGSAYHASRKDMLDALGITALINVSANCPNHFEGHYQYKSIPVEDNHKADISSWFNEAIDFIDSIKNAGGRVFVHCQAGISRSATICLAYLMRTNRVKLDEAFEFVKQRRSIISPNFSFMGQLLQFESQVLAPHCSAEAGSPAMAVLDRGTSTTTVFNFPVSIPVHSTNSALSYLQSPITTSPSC

SMILES	IC50
CCOc1ccc2noc3c2c1C(=O)c1ccccc1-3	30.2 µM
O=C1c2ccccc2-c2onc3ccc(NCCCn4ccnc4)c1c23	35.2 µM
CCCCCC#CCC#CCC#CCC#CCCCC(=O)O	13.1 µM
CC(C)Sc1nc2sc3c(c2c2nnc(SCC(=O)NCc4ccco4)n12)CCCC3	22.7 µM
N#Cc1c(N2CCCC2)nc(N)c2c(N)nc(N3CCCC3)cc12	> 50 µM (inactive)
Cc1nc2cc(-c3cccc(F)c3)nn2c(C)c1CCC(=O)N1CCC2(CC1)OCCO2	> 50 µM (inactive)
CCCCCNC(=O)c1ccc2c(=O)[nH]c3c(C(=O)NCC4CCCO4)sc(=S)n3c2c1 (stereo unspecified)	36.7 µM
CC(C)Cn1c(N)c(C(=O)COC(=O)c2cc(-c3ccco3)nc3ccccc23)c(=O)n(C)c1=O	25.5 µM
CCCCNC(=O)c1c(N)n(CCCOC)c2nc3ccccc3nc12	> 50 µM (inactive)
CCc1ccc(NC(=O)CSc2nc3ccccc3c(=O)n2CCN2CCOCC2)cc1	> 50 µM (inactive)
COCCCn1c(N)c(C(=O)NCCC(C)C)c2nc3ccccc3nc21	> 50 µM (inactive)
Cn1ncnc2c(=O)n(C)c(=O)nc1-2	> 50 µM (inactive)
COc1ccc(Br)cc1/C=c1\sc2nc(-c3ccco3)nn2c1=O	17.2 µM
COc1ccc(Cn2c(C)nc3c(c2=O)c2nc4ccccc4nc2n3Cc2ccco2)cc1	22 µM
CC(C)(C)N1C(=O)Cc2c1nc(N)c1c(N)nc(N3CCCCC3CO)c(C#N)c21 (stereo unspecified)	> 50 µM (inactive)
Cc1ccc(-c2csc(NC(=O)c3ccno3)n2)cc1	49.8 µM
O=C(Nc1ccccc1)c1ccc2nc(-c3ccco3)c(-c3ccco3)nc2c1	32 µM
Cc1cccc(N2CCN(C(=O)Cc3c(C(=O)O)[nH]c4ccc(Cl)cc34)CC2)c1C	46.8 µM
O=C1C=Cc2ccccc2C1=O	22.5 µM

SMILES	IC50
CCCSc1nnc(NC(=O)c2sc3nc(-c4cccs4)ccc3c2N)s1	25.7 µM
Cc1cccc(NC(=O)c2cc(NC(=O)C3CCCCC3C(=O)O)ccc2N2CCCCC2)c1 (stereo unspecified)	> 50 µM (inactive)
[O-]/[N+](=C\c1ccncc1)c1ccccc1	46.6 µM
CCn1nc(-c2ccccc2)nc2c(=O)n(C)c(=O)nc1-2	> 50 µM (inactive)
Cc1cc(C)n2c(SCC(=O)N3CCN(S(=O)(=O)c4ccc(Cl)cc4)CC3)nnc2n1	49.9 µM
COc1ccc(-c2cc3nc(C4CCN(C(=O)OC(C)(C)C)CC4)c(C(=O)O)cn3n2)cc1	36.3 µM
CC(=O)[C@@H]1[C@@H]2C(=O)N(c3ccc(F)c(Cl)c3)C(=O)[C@@H]2C2c3ccccc3C=CN21 (stereo partly specified)	> 50 µM (inactive)
[O-]/[N+](=C/c1ccc(F)cc1)c1ccccc1	> 50 µM (inactive)
COc1cc(/C=C(/C#N)c2ccc(F)cc2)ccc1OCc1ccc(C(=O)O)o1	> 50 µM (inactive)
Cc1c(N=c2c(=O)c3ccccc3c2=O)c(=O)n(-c2ccccc2)n1C	> 50 µM (inactive)
O=C(c1cccs1)c1no[n+]([O-])c1C(=O)c1cccs1	6.96 µM
O=C1Nc2ccccc2SC(c2ccccc2)C1O (stereo unspecified)	35.5 µM
Cc1ccc(C)n1-c1cccc(C(=O)O)c1	16.9 µM
CCOc1cc(/C=C(/C#N)c2ccc(F)cc2)ccc1OCc1ccc(C(=O)O)o1	41.8 µM
CCn1nc(-c2cccs2)nc2c(=O)n(C)c(=O)nc1-2	> 50 µM (inactive)
[O-]/[N+](=C\c1ccc(OC(F)F)cc1)c1ccccc1	> 50 µM (inactive)
N#Cc1c(N)sc(=S)c2c1CCN(Cc1ccccc1)C2	> 50 µM (inactive)
Nc1c(N2CCCC2)cc(Cl)c2nonc12	> 50 µM (inactive)
O=C(NC1(O)C(=O)c2ccccc2C1=O)c1ccccc1	> 50 µM (inactive)

SMILES	IC50
COc1ccc(-n2c(NC(=O)c3ccco3)c(C#N)c3nc4ccccc4nc32)cc1	> 50 µM (inactive)
O=C(OC1CCCCC1)c1ccc2c(c1)C1C=CCC1C(C(=O)O)N2 (stereo unspecified)	17.5 µM
CCOC(=O)c1ccc2c(c1)C1C=CCC1C(C(=O)O)N2 (stereo unspecified)	32.7 µM
Cc1cc(NC(=O)c2ccc(S(=O)(=O)N3CCCC3)cc2)nc2c1c(=O)oc1ccccc12	26.1 µM
CC1=C(/C=C/C(C)=C/C=C/C(C)=C/C(=O)O)C(C)(C)CCC1	48.6 µM
Cc1ccc(/C=C/C2=Cc3c(sc(NC(=O)CSc4n[nH]c(N)n4)c3C#N)C(C)(C)C2)o1	19.8 µM
COC(=O)c1ccccc1NC(=O)CN1C(=O)C2CCCN2c2ncc(Cl)cc21 (stereo unspecified)	> 50 µM (inactive)
CCn1c(SCC(=O)Nc2ccc3c(c2)c2ccccc2n3CC)nnc1-c1ccco1	21.1 µM
CCOc1ccc(-c2cc3nc(C4CCN(C(=O)OC(C)(C)C)CC4)c(C(=O)O)cn3n2)cc1	27.7 µM
N#Cc1c(NC(=O)c2ccc(Br)o2)n(-c2ccccc2)c2nc3ccccc3nc12	> 50 µM (inactive)
FC(F)(F)c1ccc(N2CCOCC2)c(Nc2nc3ccccc3n3cnnc23)c1	> 50 µM (inactive)
Cc1nc2c(C(=O)NCCC3=CCCCC3)c[nH]n2c(=O)c1Cl	49.9 µM
Nc1nc2c(s1)CCc1c-2cnn1-c1ccccc1	> 50 µM (inactive)
CCCCn1c(SCC(=O)c2ccc(OC)cc2OC)nc2cc(S(N)(=O)=O)ccc21	42.1 µM
COc1ccc2noc3c2c1C(=O)c1ccccc1-3	14.3 µM
O=C(Nc1ccc2nc(-c3ccco3)c(-c3ccco3)nc2c1)N1CCCCCC1	24.1 µM
CCCCn1c(NC(=O)c2ccccc2)c(C#N)c2nc3ccccc3nc21	32.4 µM
O=C1C=C(NCc2ccc(Cl)c(Cl)c2)CC1	> 50 µM (inactive)

— PubChem BioAssay AID562 (University of Pittsburgh Molecular Library Screening Center, 2006)
